Counter-ions that a name gives are not always drawn. Marks after values point to notes of the source that are not given here.

This test relates to compound 48/80-induced systemic anaphylaxis-like reactions in mice. Nature of the test: Compound 48/80-induced systemic anaphylaxis-like reactions in mice (mortality). It is filed as in vivo. To be noted: n = 8, oral 1 h before i.p. compound 48/80 (8 mg/kg), mortality within 1 h. As to the method:
Five groups each of 8 male albino mice were used in this experiment. Mice were housed 4 per cage and were maintained at room temperature (25 ± 0.5 °C). All experiments were performed in compliance with the guidelines approved by the ethics committee of Faculty of Pharmacy, The British University in Egypt (approval number Ex-1904). The mice in the first group were administered phosphate buffer saline orally (negative control group), while the second group were administered phosphate buffer saline 1 hour prior to an intraperitoneal injection of 8 mg/kg of the mast cell degranulator compound 48/80 which induces systemic anaphylaxis-like reactions in mice (positive control group). […] The mortality was monitored for 1 h after induction of anaphylactic shock. After the mortality test, blood was obtained from the heart of each mouse by cardiac puncture.

The compound `CC(C)(C(=O)O)c1ccc(C(O)CCCN2CCC(C(O)(c3ccccc3)c3ccccc3)CC2)cc1` (stereo not shown) [FEX powder, Fexofenadine HCl] yielded a Mortality of 62.5% *.

Values taken from publication PMC7285181 (Pharmaceutics, 2020).
